Laboratory results published in patent US10995091B2 (Proximagen, LLC, priority 2010, dated 2021).
pKi: −log10 of the molar value. Where a name gives a salt, the structure may show the parent alone.

Biological target: T1, Human CXCR4 transfected HEK293 cells (Homo sapiens, UniProt P61073)
T1 construct: expressed in transfected cells; host or cells: HEK293
Test: CXCR4 functional calcium assay (calcium flux FLIPR, antagonism of SDF1 response)
Type: cell-based
Settings: CXCR4 functional activity, antagonism of SDF1 (EC50 concentration), read-out: CXCR4 fKi
In short: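 Dose-dependent antagonism of the SDF1 response was read by FLIPR as Fluo-4 calcium signal (2 μM dye) in CXCR4-expressing human HEK293 cells, in HBSS with probenecid, BSA and HEPES at pH 7.4 and 37° C. Test compound was given before an EC50-level SDF1 challenge. Curves were then fitted.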

T1 sequence (P61073 whole entry): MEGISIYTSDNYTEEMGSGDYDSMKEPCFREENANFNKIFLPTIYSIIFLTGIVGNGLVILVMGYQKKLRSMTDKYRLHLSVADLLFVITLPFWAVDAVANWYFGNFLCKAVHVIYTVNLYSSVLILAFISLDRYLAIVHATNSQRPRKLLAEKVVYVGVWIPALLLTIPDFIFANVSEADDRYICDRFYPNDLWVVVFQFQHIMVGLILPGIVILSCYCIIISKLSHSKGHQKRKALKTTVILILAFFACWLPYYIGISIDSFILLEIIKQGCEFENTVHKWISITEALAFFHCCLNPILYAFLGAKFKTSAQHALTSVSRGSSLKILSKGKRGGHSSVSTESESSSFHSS

Compound | pKi
CC(C)N1CCC(N2CCCN(c3cccc(-c4noc(-c5ccncc5)n4)n3)CC2)CC1 [Example 167, 1-[1-(Propan-2-yl)piperidin-4-yl]-4-{6-[5-(pyridine-4-yl)-1,2,4-oxadiazol-3-yl]pyridine-2-yl}-1,4-diazepane tetrahydrochloride] | 7.00 to 7.70
CC(C)N1CCC(N2CCCN(c3cccc(-c4nnn(C)n4)n3)CC2)CC1 [Example 168, 1-[6-(2-Methyl-2H-1,2,3,4-tetrazol-5-yl)pyridin-2-yl]-4-[1-(propan-2-yl)piperidin-4-yl]-1,4-diazepane] | 6.30 to 7.00
CC(C)N1CCC(N2CCCN(c3cccc(-c4nc(C5CC5)no4)n3)CC2)CC1 [Example 169, 1-[6-(3-Cyclopropyl-1,2,4-oxadiazol-5-yl)pyridin-2-yl]-4-[1-(propan-2-yl)piperidin-4-yl]-1,4-diazepane] | 6.00 to 6.30
CC(C)N1CCC(N2CCCN(c3cccc(-c4nc(-c5ccccc5)no4)n3)CC2)CC1 [Example 170, 1-[6-(3-Phenyl-1,2,4-oxadiazol-5-yl)pyridin-2-yl]-4-[1-(propan-2-yl)piperidin-4-yl]-1,4-diazepane] | 6.30 to 7.00
CCCCc1cnc(-c2cccc(N3CCCN(C4CCN(C(C)C)CC4)CC3)n2)o1 [Example 171, 1-[6-(5-Butyl-1,3-oxazol-2-yl)pyridin-2-yl]-4-[1-(propan-2-yl)piperidin-4-yl]-1,4-diazepane] | 6.00 to 6.30
CC(C)N1CCC(N2CCCN(c3cccc(-c4nnc(C5CC5)o4)n3)CC2)CC1 [Example 172, 1-[6-(5-Cyclopropyl-1,3,4-oxadiazol-2-yl)pyridin-2-yl]-4-[1-(propan-2-yl)piperidin-4-yl]-1,4-diazepane] | 6.30 to 7.00
Cc1cn[nH]c1-c1cccc(N2CCCN(C3CCN(C(C)C)CC3)CC2)n1 [Example 173, 1-[6-(4-Methyl-1H-pyrazol-3-yl)pyridin-2-yl]-4-[1-(propan-2-yl)piperidin-4-yl]-1,4-diazepane Trihydrochloride] | 6.00 to 6.30
CC(C)N1CCC(N2CCC(C)N(c3cccc(C(=O)NCC4CC4)n3)CC2)CC1 (stereo not drawn) [Example 174, N-(Cyclopropylmethyl)-6-{7-methyl-4-[1-(propan-2-yl)piperidin-4-yl]-1,4-diazepan-1-yl}pyridine-2-carboxamide] | 6.30 to 7.00
[2H]C1([2H])CCN(C2CCN(C(C)C)CC2)CCN1c1cccc(C(=O)Nc2ccncc2)n1 [Example 175, 6-{7,7-Dihydrogenio-4-[1-(propan-2-yl)piperidin-4-yl]-1,4-diazepan-1-yl}-N-(pyridine-4-yl)pyridine-2-carboxamide] | > 7.70
[2H]C1([2H])CCN(C2CCN([C@H](C)CC)CC2)CCN1c1cccc(C(=O)Nc2ccncc2)n1 [Example 176, 6-(4-{1-[(2R)-Butan-2-yl]piperidin-4-yl}-7,7-dihydrogenio-1,4-diazepan-1-yl)-N-(pyridine-4-yl)pyridine-2-carboxamide] | > 7.70
[2H]C1([2H])CCN(C2CCN([C@@H](C)CC)CC2)CCN1c1cccc(C(=O)Nc2ccncc2)n1 [Example 177, 6-(4-{1-[(2S)-Butan-2-yl]piperidin-4-yl}-7,7-dihydrogenio-1,4-diazepan-1-yl)-N-(pyridine-4-yl)pyridine-2-carboxamide] | > 7.70
[2H]C1([2H])CCN(C2CCN([C@@H](C)C(F)(F)F)CC2)CCN1c1cccc(C(=O)Nc2ccncc2)n1 [Example 178, 6-(7,7-Dihydrogenio-4-{1-[(2S)-1,1,1-trifluoropropan-2-yl]piperidin-4-yl}-1,4-diazepan-1-yl)-N-(pyridine-4-yl)pyridine-2-carboxamide] | 7.00 to 7.70
[2H]C1([2H])CCN(C2CCN(C3CCCC3)CC2)CCN1c1cccc(C(=O)Nc2ccncc2)n1 [Example 179, 6-[4-(1-Cyclopentylpiperidin-4-yl)-7,7-dihydrogenio-1,4-diazepan-1-yl]-N-(pyridine-4-yl)pyridine-2-carboxamide] | > 7.70
[2H]C1([2H])CCN(C2CCN(Cc3ccccc3Cl)CC2)CCN1c1cccc(C(=O)Nc2ccncc2)n1 [Example 180, 6-(4-{1-[(2-Chlorophenyl)methyl]piperidin-4-yl}-7,7-dihydrogenio-1,4-diazepan-1-yl)-N-(pyridin-4-yl)pyridine-2-carboxamide] | > 7.70
[2H]C1([2H])CCN(C2CCN(C(C)C)CC2)CCN1c1cccc(C(=O)NCC2CC2)n1 [Example 181, N-(Cyclopropylmethyl)-6-{7,7-dihydrogenio-4-[1-(propan-2-yl)piperidin-4-yl]-1,4-diazepan-1-yl}pyridine-2-carboxamide] | 7.00 to 7.70
CC1CN(c2cccc(C(=O)Nc3ccncc3)n2)CCN(C2CCN(C(C)C)CC2)C1 (stereo not drawn) [Example 182, 6-{6-Methyl-4-[1-(propan-2-yl)piperidin-4-yl]-1,4-diazepan-1-yl}-N-(pyridin-4-yl)pyridine-2-carboxamide] | 7.00 to 7.70
CC(C)N1CCC(N2CCN(c3cccc(C(=O)NCC4CC4)n3)CC(O)C2)CC1 (stereo not drawn) [Example 183, N-(Cyclopropylmethyl)-6-{6-hydroxy-4-[1-(propan-2-yl)piperidin-4-yl]-1,4-diazepan-1-yl}pyridine-2-carboxamide] | 6.30 to 7.00

Compound | pKi
CC(C)N1CCC(N2CCN(c3cccc(C(=O)NCC4CC4)n3)CCC2C)CC1 (stereo not drawn) [Example 184, N-(Cyclopropylmethyl)-6-{5-methyl-4-[1-(propan-2-yl)piperidin-4-yl]-1,4-diazepan-1-yl}pyridine-2-carboxamide] | 7.00 to 7.70
CC(C)N1CCC(N2CCCN(c3cccc(C(=O)NCc4cccnc4)n3)CC2)C(F)C1 (stereo not drawn) [Example 185, 6-{4-[3-Fluoro-1-(propan-2-yl)piperidin-4-yl]-1,4-diazepan-1-yl}-N-(pyridin-3-ylmethyl)pyridine-2-carboxamide] | 6.30 to 7.00
[2H]C1([2H])CCN(c2cccc(C(=O)Nc3ccncc3)n2)CCN1C1CCN(C(C)C)CC1 [Example 186, 6-{5,5-Dihydrogenio-4-[1-(propan-2-yl)piperidin-4-yl]-1,4-diazepan-1-yl}-N-(pyridin-4-yl)pyridine-2-carboxamide] | > 7.70
[2H]C1([2H])CCN(c2cccc(C(=O)Nc3ccncc3)n2)CCN1C1CCN(C(C)C)CC1F (stereo not drawn) [Example 187, 6-{4-[3-Fluoro-1-(propan-2-yl)piperidin-4-yl]-5,5-dihydrogenio-1,4-diazepan-1-yl}-N-(pyridin-4-yl)pyridine-2-carboxamide] | 7.00 to 7.70
[2H]C1([2H])CCN(c2cccc(C(=O)Nc3ccncc3)n2)CCN1C1CCN([C@H](C)CC)CC1 [Example 188, 6-(4-{1-[(2R)-Butan-2-yl]piperidin-4-yl}-5,5-dihydrogenio-1,4-diazepan-1-yl)-N-(pyridin-4-yl)pyridine-2-carboxamide] | > 7.70
[2H]C1([2H])CCN(c2cccc(C(=O)Nc3ccncc3)n2)CCN1C1CCN([C@@H](C)CC)CC1 [Example 189, 6-(4-{1-[(2S)-Butan-2-yl]piperidin-4-yl}-5,5-dihydrogenio-1,4-diazepan-1-yl)-N-(pyridin-4-yl)pyridine-2-carboxamide] | > 7.70
[2H]C1([2H])CCN(c2cccc(C(=O)Nc3ccncc3)n2)CCN1C1CCN([C@@H](C)C(F)(F)F)CC1 [Example 190, 6-(5,5-Dihydrogenio-4-{1-[(2S)-1,1,1-trifluoropropan-2-yl]piperidin-4-yl}-1,4-diazepan-1-yl)-N-(pyridin-4-yl)pyridine-2-carboxamide] | > 7.70
[2H]C1([2H])CCN(c2cccc(C(=O)Nc3ccncc3)n2)CCN1C1CCN(C2CCCC2)CC1 [Example 191, 6-[4-(1-Cyclopentylpiperidin-4-yl)-5,5-dihydrogenio-1,4-diazepan-1-yl]-N-(pyridin-4-yl)pyridine-2-carboxamide] | > 7.70
[2H]C1([2H])CCN(c2cccc(C(=O)NCC3CC3)n2)CCN1C1CCN(C(C)C)CC1 [Example 192, N-(Cyclopropylmethyl)-6-{5,5-dihydrogenio-4-[1-(propan-2-yl)piperidin-4-yl]-1,4-diazepan-1-yl}pyridine-2-carboxamide] | 7.00 to 7.70
CC(C)N1CCC(N2CCCN(c3cccc(C(=O)Nc4ccncc4)n3)CC2C)CC1 (stereo not drawn) [Example 193, 6-{3-Methyl-4-[1-(propan-2-yl)piperidin-4-yl]-1,4-diazepan-1-yl}-N-(pyridin-4-yl)pyridine-2-carboxamide] | > 7.70
CC(C)N1CCC(N2CCCN(c3cccc(C(=O)NCC4CC4)n3)CC2C)CC1 (stereo not drawn) [Example 194, N-(Cyclopropylmethyl)-6-{3-methyl-4-[1-(propan-2-yl)piperidin-4-yl]-1,4-diazepan-1-yl}pyridine-2-carboxamide] | 7.00 to 7.70
[2H]C1([2H])CCN(c2cccc(C(=O)Nc3ccncc3)n2)CC(C)N1C1CCN(C(C)C)CC1 (stereo not drawn) [Example 195, 6-{5,5-Dihydrogenio-3-methyl-4-[1-(propan-2-yl)piperidin-4-yl]-1,4-diazepan-1-yl}-N-(pyridin-4-yl)pyridine-2-carboxamide] | > 7.70
[2H]C1([2H])CCN(c2cccc(C(=O)Nc3ccncc3)n2)CC(C)N1C1CCN([C@@H](C)C(F)(F)F)CC1 (stereo partly drawn) [Example 196, 6-(5,5-Dihydrogenio-3-methyl-4-{1-[(2S)-1,1,1-trifluoropropan-2-yl]piperidin-4-yl}-1,4-diazepan-1-yl)-N-(pyridin-4-yl)pyridine-2-carboxamide] | 7.00 to 7.70
CC(C)N1CCC(N2CC3CCC2CN(c2cccc(C(=O)Nc4ccncc4)n2)C3)CC1 (stereo not drawn) [Example 197, 6-{6-[1-(Propan-2-yl)piperidin-4-yl]-3,6-diazabicyclo[3.2.2]nonan-3-yl}-N-(pyridin-4-yl)pyridine-2-carboxamide] | 7.00 to 7.70
CC(C)N1CCC(N2CC3CCC2CN(c2cccc(C(=O)Nc4ccncc4)n2)C3)C(F)C1 (stereo not drawn) [Example 198] | 6.30 to 7.00
CC(C)N1CCC(N2CC3CCC2CN(c2cccc(C(=O)NCC4CC4)n2)C3)CC1 (stereo not drawn) [Example 199, N-(Cyclopropylmethyl)-6-{6-[1-(propan-2-yl)piperidin-4-yl]-3,6-diazabicyclo[3.2.2]nonan-3-yl}pyridine-2-carboxamide trihydrochloride] | 6.00 to 6.30
